Data from patent publication US10808018B2, “Erythropoietin-derived peptides and methods of protecting cells from oxidative damage induced by reactive oxygen species” (SYLUS CO., LTD., priority 2017, dated 2020).
Peptide text beside a SMILES is read from it.

Tests used:
[1] = test system: PC12 cells; experiment: Cell proliferation side effect, MTS assay; format: cell-based; details: peptide 1 pM to 0.5 nM, 48 hours, FIG. 4
Method: Side effects such as cell proliferation were determined for the three peptides (ML1-L2, ML1-K2, and ML1-R2) prepared in Example 4.
In detail, to determine cell proliferation degree, an MTS assay (CellTiter 96 Aqueous One Solution Cell Proliferation Assay, Promega, Madison, Wis., USA) was performed. […] The initial number of cells (0 hour) and the number of cells after 48 hours were counted. Intracellular soluble formazan produced by cell reduction was determined by recording absorbance of each 96-well plate at a wavelength of 490 nm using a VERSA MAX.

[2] = biological target: T1, Soluble mouse EPOR chimera proteins (erythropoietin receptor) (Mus musculus, UniProt P14753); experiment: Surface plasmon resonance (SPR) binding affinity to erythropoietin receptor; details: for Ka: association rate
T1 construct: Soluble mouse EPOR chimera proteins; purchased R&D Systems
T1 sequence (P14753 25-249 limits assumed): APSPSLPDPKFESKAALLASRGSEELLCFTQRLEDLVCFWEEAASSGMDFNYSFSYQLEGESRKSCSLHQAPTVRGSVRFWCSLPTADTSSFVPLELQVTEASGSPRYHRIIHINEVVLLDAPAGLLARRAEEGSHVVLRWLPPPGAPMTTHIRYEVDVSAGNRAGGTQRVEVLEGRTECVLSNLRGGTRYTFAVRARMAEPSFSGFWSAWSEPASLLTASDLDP
From the text: The SPR technique is to measure interactions between biomolecules in real-time by using an optical principle without specific labeling, and is a system analyzing affinity between two molecules and kinetics, i.e., an association rate (Ka) and a dissociation rate (Kd). In detail, real-time SPR analysis may be performed using Reichert SPR Biosensor SR […] instrument (Reichert Inc., NY, USA). Soluble mouse EPOR chimera proteins (R&D Systems, Minneapolis, Minn., USA) were covalently linked to a carboxymethylated dextran matrix-coated chip (BR-1005-39, Pharmacia Biosensor AB) by an amine coupling procedure using an amine coupling kit (BR-1000-50, GE Healthcare, USA) in accordance with manufacturer's instructions. Each 5 pM, 2.5 pM, and 1.25 pM of the peptide samples of the present disclosure and scrambled peptides were applied at a flow rate of 5 μl/minute, and the experiments were independently performed in duplicate. For signal normalization, DMSO was applied at a flow rate of 5 μl/minute. After each binding cycle, the sensor chip was regenerated by injecting 25 mM of acetic acid at a flow rate of 20 μl/minute.

Structure (SMILES) | dissociation rate constant (koff) ([2]; Table 8) | Ka ([2]; Table 8) | further results
CC(C)C[C@H](NC(=O)[C@@H](NC(=O)[C@@H](NC(=O)[C@H](CC(C)C)NC(=O)[C@H](CO)NC(=O)[C@H](CCCNC(=N)N)NC(=O)[C@H](CC(C)C)NC(=O)CNC(=O)[C@H](CO)NC(=O)[C@@H](NC(=O)[C@H](C)NC(=O)[C@H](CCCCN)NC(=O)[C@H](CC(=O)O)NC(=O)[C@@H](NC(=O)[C@H](Cc1c[nH]cn1)NC(=O)[C@@H](N)CC(C)C)C(C)C)C(C)C)[C@@H](C)O)[C@@H](C)O)C(=O)O [ML1-L2] (H-LHVDKAVSGLRSLTTL-OH) | – | – | cell proliferation rate (side effect) [1]: no side effect of cell proliferation
CC(C)C[C@H](NC(=O)CNC(=O)[C@H](CO)NC(=O)[C@@H](NC(=O)[C@H](C)NC(=O)[C@H](CCCCN)NC(=O)[C@H](CC(=O)O)NC(=O)[C@@H](NC(=O)[C@H](Cc1c[nH]cn1)NC(=O)[C@@H](N)CCCCN)C(C)C)C(C)C)C(=O)N[C@@H](CCCNC(=N)N)C(=O)N[C@@H](CO)C(=O)N[C@@H](CC(C)C)C(=O)N[C@H](C(=O)N[C@H](C(=O)N[C@@H](CCCCN)C(=O)O)[C@@H](C)O)[C@@H](C)O [ML1-K2] (H-KHVDKAVSGLRSLTTK-OH) | – | – | cell proliferation rate (side effect) [1]: no side effect of cell proliferation
CC(C)C[C@H](NC(=O)CNC(=O)[C@H](CO)NC(=O)[C@@H](NC(=O)[C@H](C)NC(=O)[C@H](CCCCN)NC(=O)[C@H](CC(=O)O)NC(=O)[C@@H](NC(=O)[C@H](Cc1c[nH]cn1)NC(=O)[C@@H](N)CCCNC(=N)N)C(C)C)C(C)C)C(=O)N[C@@H](CCCNC(=N)N)C(=O)N[C@@H](CO)C(=O)N[C@@H](CC(C)C)C(=O)N[C@H](C(=O)N[C@H](C(=O)N[C@@H](CCCNC(=N)N)C(=O)O)[C@@H](C)O)[C@@H](C)O [ML1-R2] (H-RHVDKAVSGLRSLTTR-OH) | – | – | cell proliferation rate (side effect) [1]: no side effect of cell proliferation
CC(C)C[C@H](NC(=O)CNC(=O)[C@H](CO)NC(=O)[C@@H](NC(=O)[C@H](CCCNC(=N)N)NC(=O)[C@H](CCCCN)NC(=O)[C@H](CC(=O)O)NC(=O)[C@@H](NC(=O)[C@H](Cc1c[nH]cn1)NC(=O)[C@H](CCCNC(=N)N)NC(=O)[C@H](CCC(N)=O)NC(=O)[C@@H](N)CC(C)C)C(C)C)C(C)C)C(=O)N[C@@H](CCCNC(=N)N)C(=O)N[C@@H](CO)C(=O)N[C@@H](CC(C)C)C(=O)N[C@H](C(=O)N[C@H](C(=O)N[C@@H](CC(C)C)C(=O)N[C@@H](CC(C)C)C(=O)N[C@@H](CCCNC(=N)N)C(=O)N[C@@H](C)C(=O)N[C@@H](CC(C)C)C(=O)NCC(=O)O)[C@@H](C)O)[C@@H](C)O [ML1-C2] (H-LQRHVDKRVSGLRSLTTLLRALG-OH; N-terminus and C-terminus assumed) | – | – | Ka ([2]; Table 9): 1.59E+03; dissociation rate constant (koff) ([2]; Table 9): 0.01876
CC(C)C[C@H](NC(=O)[C@H](CCC(=O)O)NC(=O)[C@H](CCCNC(=N)N)NC(=O)[C@H](CC(C)C)NC(=O)[C@H](CC(C)C)NC(=O)[C@H](CCCCN)NC(=O)[C@@H](NC(=O)[C@H](CC(C)C)NC(=O)[C@H](CO)NC(=O)[C@H](CCCNC(=N)N)NC(=O)[C@H](CC(C)C)NC(=O)CNC(=O)[C@H](CO)NC(=O)[C@H](CCC(=O)O)NC(=O)[C@H](C)NC(=O)[C@H](CCCCN)NC(=O)[C@H](CCC(N)=O)NC(=O)[C@@H](NC(=O)[C@H](Cc1c[nH]cn1)NC(=O)[C@@H](N)CCCNC(=N)N)C(C)C)[C@@H](C)O)C(=O)O [ML2-1] (H-RHVQKAESGLRSLTKLLREL-OH; N-terminus and C-terminus assumed) | 4.1 × 10^−3 | 3.1 × 10^2 | –
CC(C)C[C@H](NC(=O)CNC(=O)[C@H](CO)NC(=O)[C@@H](NC(=O)[C@H](C)NC(=O)[C@H](CCCCN)NC(=O)[C@H](CC(C)C)NC(=O)[C@@H](NC(=O)[C@H](Cc1c[nH]cn1)NC(=O)[C@H](CC(C)C)NC(=O)[C@H](CCC(N)=O)NC(=O)[C@@H](N)CC(C)C)C(C)C)C(C)C)C(=O)N[C@@H](CC(C)C)C(=O)N[C@H](C(=O)N[C@@H](Cc1c[nH]cn1)C(=O)N[C@H](C(=O)N[C@H](C(=O)N[C@@H](CC(C)C)C(=O)N[C@@H](CC(C)C)C(=O)N[C@@H](CCCCN)C(=O)N[C@@H](C)C(=O)N[C@@H](CC(C)C)C(=O)NCC(=O)O)[C@@H](C)O)[C@@H](C)O)[C@@H](C)O [ML1-H1] (H-LQLHVLKAVSGLLTHTTLLKALG-OH; N-terminus and C-terminus assumed) | – | – | Ka ([2]; Table 9): 1.01E+03; dissociation rate constant (koff) ([2]; Table 9): 7.94E−03
CC(C)C[C@H](NC(=O)CNC(=O)[C@H](CCCCN)NC(=O)[C@@H](NC(=O)[C@H](CCCNC(=N)N)NC(=O)[C@H](CCCCN)NC(=O)[C@H](CCCCN)NC(=O)[C@@H](NC(=O)[C@H](Cc1c[nH]cn1)NC(=O)[C@H](CCCNC(=N)N)NC(=O)[C@H](CCC(N)=O)NC(=O)[C@@H](N)CC(C)C)C(C)C)C(C)C)C(=O)N[C@@H](CCCCN)C(=O)N[C@@H](CO)C(=O)N[C@@H](CC(C)C)C(=O)N[C@H](C(=O)N[C@H](C(=O)N[C@@H](CC(C)C)C(=O)N[C@@H](CC(C)C)C(=O)N[C@@H](CCCNC(=N)N)C(=O)N[C@@H](C)C(=O)N[C@@H](CC(C)C)C(=O)NCC(=O)O)[C@@H](C)O)[C@@H](C)O [ML1-C3] (H-LQRHVKKRVKGLKSLTTLLRALG-OH; N-terminus and C-terminus assumed) | – | – | Ka ([2]; Table 9): 1104.9; dissociation rate constant (koff) ([2]; Table 9): 0.01086
CC(C)C[C@H](NC(=O)CNC(=O)[C@H](C)NC(=O)[C@@H](NC(=O)[C@H](C)NC(=O)[C@H](CCCCN)NC(=O)[C@@H](N)CC(N)=O)C(C)C)C(=O)N[C@@H](CCCNC(=N)N)C(=O)N[C@@H](CO)C(=O)N[C@@H](CC(C)C)C(=O)N[C@H](C(=O)N[C@H](C(=O)N[C@@H](CC(N)=O)C(=O)O)C(C)C)[C@@H](C)O [ML8-1] (H-NKAVAGLRSLTVN-OH; N-terminus and C-terminus assumed) | 1.5 × 10^−1 | – | –
CSCC[C@H](NC(=O)[C@@H](NC(=O)[C@H](Cc1c[nH]cn1)NC(=O)[C@H](CO)NC(=O)[C@H](CC(C)C)NC(=O)[C@H](CC(C)C)NC(=O)CNC(=O)[C@H](CO)NC(=O)[C@@H](NC(=O)[C@H](CCCNC(=N)N)NC(=O)[C@H](CCCCN)NC(=O)[C@H](CC(C)C)NC(=O)[C@@H](NC(=O)[C@H](Cc1c[nH]cn1)NC(=O)[C@H](CC(C)C)NC(=O)[C@H](CCC(N)=O)NC(=O)[C@@H](N)CC(C)C)C(C)C)C(C)C)[C@@H](C)O)C(=O)N[C@@H](CC(C)C)C(=O)N[C@@H](CC(C)C)C(=O)N[C@@H](CCCCN)C(=O)N[C@@H](C)C(=O)N[C@@H](CC(C)C)C(=O)NCC(=O)O [ML1-1] (H-LQLHVLKRVSGLLSHTMLLKALG-OH; N-terminus and C-terminus assumed) | 5.9 × 10^−3 | 5.55 × 10^3 | –

The next lines start with results.

dissociation rate constant (koff) ([2]; Table 8) | Ka ([2]; Table 8) | Structure (SMILES) | further results
4.5 × 10^−2 | – | CC[C@H](C)[C@H](NC(=O)[C@H](C)NC(=O)[C@H](CCC(=O)O)NC(=O)[C@H](CCCCN)NC(=O)[C@H](CCC(N)=O)NC(=O)[C@H](C)NC(=O)CNC(=O)[C@H](CC(C)C)NC(=O)[C@H](C)NC(=O)[C@H](CCCNC(=N)N)NC(=O)[C@H](CC(C)C)NC(=O)[C@H](CC(C)C)NC(=O)[C@@H](NC(=O)[C@@H](NC(=O)[C@H](CC(C)C)NC(=O)[C@H](CO)NC(=O)[C@H](CCCNC(=N)N)NC(=O)[C@H](CC(C)C)NC(=O)CNC(=O)[C@@H](N)CO)[C@@H](C)O)[C@@H](C)O)C(=O)O [ML6] | –
3 × 10^−3 | 2.05 × 10^2 | CC(C)[C@H](NC(=O)[C@H](CCCCN)NC(=O)[C@@H](N)[C@@H](C)O)C(=O)N[C@@H](CC(N)=O)C(=O)N[C@@H](Cc1ccccc1)C(=O)N[C@@H](Cc1ccc(O)cc1)C(=O)N[C@@H](C)C(=O)N[C@@H](Cc1c[nH]c2ccccc12)C(=O)N[C@@H](CCCCN)C(=O)N[C@@H](CCCNC(=N)N)C(=O)O [ML3] (H-TKVNFYAWKR-OH; N-terminus and C-terminus assumed) | –
0.8 × 10^−1 | 1.8 × 10^2 | CC(C)C[C@H](NC(=O)[C@H](C)NC(=O)[C@H](CCCNC(=N)N)NC(=O)[C@H](CC(C)C)NC(=O)[C@H](CC(C)C)NC(=O)[C@@H](NC(=O)[C@@H](NC(=O)[C@H](CC(C)C)NC(=O)[C@H](CO)NC(=O)[C@H](CCCNC(=N)N)NC(=O)[C@H](CC(C)C)NC(=O)CNC(=O)[C@H](CO)NC(=O)[C@@H](NC(=O)[C@H](C)NC(=O)[C@H](CCCCN)NC(=O)[C@@H](N)CC(=O)O)C(C)C)[C@@H](C)O)[C@@H](C)O)C(=O)O [ML8] (H-DKAVSGLRSLTTLLRAL-OH; N-terminus and C-terminus assumed) | –
